Test results: ChEMBL document CHEMBL1201862, “PubChem BioAssay data set” (2004)
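Dose response: 5 concentrations. Exposure: 48 h. Format: 96-well plates. Endpoint: linear interpolation; highest concentration if not reached. GI50: concentration for 50% inhibition of growth.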 The source made the active and inactive calls. Cut-off read from the data, not from the text of the source: active = GI50 up to about 1.1 µM and inactive = higher.

Tests used:
Test in all cases: NCI tumour cell line growth inhibition, 48 h
A549 = system: A549
COLO 205 = system: COLO 205
DU-145 = system: DU-145
HCT-116 = system: HCT-116
Hs-578T = system: Hs-578T
IGROV-1 = system: IGROV-1
M14 = system: M14
MDA-MB-231 = system: MDA-MB-231
MDA-MB-435 = system: MDA-MB-435
MOLT-4 = system: MOLT-4
NCI-H23 = system: NCI-H23
NCI/ADR-RES = system: NCI/ADR-RES
OVCAR-4 = system: OVCAR-4
SF-295 = system: SF-295
SK-MEL-28 = system: SK-MEL-28
SK-MEL-5 = system: SK-MEL-5
SNB-19 = system: SNB-19
UACC-62 = system: UACC-62
UO-31 = system: UO-31

| SMILES | GI50 (A549) | GI50 (COLO 205) | GI50 (DU-145) | GI50 (HCT-116) | GI50 (Hs-578T) | GI50 (IGROV-1) | GI50 (M14) | GI50 (MDA-MB-231) | GI50 (MDA-MB-435) | GI50 (MOLT-4) | GI50 (NCI-H23) | GI50 (NCI/ADR-RES) | GI50 (OVCAR-4) | GI50 (SF-295) | GI50 (SK-MEL-28) | GI50 (SK-MEL-5) | GI50 (SNB-19) | GI50 (UACC-62) | GI50 (UO-31) |
| --- | --- | --- | --- | --- | --- | --- | --- | --- | --- | --- | --- | --- | --- | --- | --- | --- | --- | --- | --- |
| COc1cc(C=C2C(=O)NC(=S)NC2=O)cc(OC)c1OC | > 100 µM (inactive) | > 100 µM (inactive) | > 100 µM (inactive) | > 100 µM (inactive) | > 100 µM (inactive) | > 100 µM (inactive) | > 100 µM (inactive) | > 100 µM (inactive) | > 100 µM (inactive) | > 100 µM (inactive) | > 100 µM (inactive) | > 100 µM (inactive) | > 100 µM (inactive) | > 100 µM (inactive) | > 100 µM (inactive) | > 100 µM (inactive) | > 100 µM (inactive) | > 100 µM (inactive) | > 100 µM (inactive) |
| O=C(O)c1ccccc1-c1ccccc1C(=O)c1ccccc1 | > 100 µM (inactive) | > 100 µM (inactive) | > 100 µM (inactive) | > 100 µM (inactive) | > 100 µM (inactive) | > 100 µM (inactive) | > 100 µM (inactive) | > 100 µM (inactive) | > 100 µM (inactive) | > 100 µM (inactive) | > 100 µM (inactive) | > 100 µM (inactive) | > 100 µM (inactive) | > 100 µM (inactive) | > 100 µM (inactive) | > 100 µM (inactive) | > 100 µM (inactive) | > 100 µM (inactive) | > 100 µM (inactive) |
| CN(C)CCSS(=O)(=O)O | > 100 µM (inactive) | > 100 µM (inactive) | > 100 µM (inactive) | > 100 µM (inactive) | > 100 µM (inactive) | > 100 µM (inactive) | > 100 µM (inactive) | > 100 µM (inactive) | > 100 µM (inactive) | > 100 µM (inactive) | > 100 µM (inactive) | > 100 µM (inactive) | > 100 µM (inactive) | 13.3 µM (inactive) | > 100 µM (inactive) | > 100 µM (inactive) | > 100 µM (inactive) | > 100 µM (inactive) | > 100 µM (inactive) |
| O=C(/C=N/O)Nc1cc(Cl)c(Cl)cc1Cl | 34.5 µM (inactive) | 26.8 µM (inactive) | 31.9 µM (inactive) | 37.1 µM (inactive) | 29.2 µM (inactive) | 20.7 µM (inactive) | 34.4 µM (inactive) | 25.8 µM (inactive) | 23 µM (inactive) | 15.1 µM (inactive) | 29.6 µM (inactive) | 33.9 µM (inactive) | 26.1 µM (inactive) | 27 µM (inactive) | 41 µM (inactive) | 17.7 µM (inactive) | 50.5 µM (inactive) | 25.9 µM (inactive) | 41.9 µM (inactive) |
| CCOC(=O)COC1=Nc2cc(OC)c(OC)c3nc(Cl)cc(c23)C1=O | 6.18 µM (inactive) | 1.92 µM (inactive) | 1.82 µM (inactive) | 1.67 µM (inactive) | 2.77 µM (inactive) | 2.37 µM (inactive) | 1.65 µM (inactive) | 1.76 µM (inactive) | 1.4 µM (inactive) | 0.383 µM (active) | 2.25 µM (inactive) | 2.97 µM (inactive) | 1.67 µM (inactive) | 10 µM (inactive) | 1.99 µM (inactive) | 1.88 µM (inactive) | 6.08 µM (inactive) | 1.78 µM (inactive) | 1.84 µM (inactive) |
| N#CC1(C#N)C(c2ccccc2)C=CC(c2ccc([N+](=O)[O-])cc2)C1(C#N)C#N (centres undefined) | 17.7 µM (inactive) | 1.57 µM (inactive) | 14.2 µM (inactive) | 3.8 µM (inactive) | 17.9 µM (inactive) | 14 µM (inactive) | 4.59 µM (inactive) | 13.4 µM (inactive) | 3.37 µM (inactive) | 2.3 µM (inactive) | 12.4 µM (inactive) | 8.38 µM (inactive) | 16.5 µM (inactive) | 18.5 µM (inactive) | 15.8 µM (inactive) | 10.7 µM (inactive) | 15.1 µM (inactive) | 12 µM (inactive) | 13.7 µM (inactive) |
| CCN1C(=O)C(=C/C=C/c2ccc([N+](=O)[O-])cc2)C(=O)N(CC)C1=S | > 100 µM (inactive) | 35.1 µM (inactive) | 17.6 µM (inactive) | 17.6 µM (inactive) | 15.3 µM (inactive) | 15.1 µM (inactive) | 29 µM (inactive) | 21.3 µM (inactive) | 23.4 µM (inactive) | 29.6 µM (inactive) | 18.2 µM (inactive) | 19.5 µM (inactive) | 33 µM (inactive) | > 100 µM (inactive) | 18 µM (inactive) | 20.8 µM (inactive) | 37.9 µM (inactive) | 18.9 µM (inactive) | 18.8 µM (inactive) |
| COC(O)C12OC3CO[Si](C(C)C)(C(C)C)O[Si](C(C)C)(C(C)C)OC3C1Oc1nc(=O)ccn12 (centres undefined) | 12.6 µM (inactive) | 12.7 µM (inactive) | 16.3 µM (inactive) | 8.61 µM (inactive) | 2.67 µM (inactive) | 12.3 µM (inactive) | 12.7 µM (inactive) | 17.1 µM (inactive) | 12.3 µM (inactive) | 2.15 µM (inactive) | 14.3 µM (inactive) | 21.6 µM (inactive) | 14.2 µM (inactive) | 12.2 µM (inactive) | > 100 µM (inactive) | 7.87 µM (inactive) | 14.4 µM (inactive) | 11 µM (inactive) | 15.8 µM (inactive) |
| CC1=CC(C)C/C=C/C2C3OC3(C)C(C)C3C(Cc4c[nH]c5ccccc45)NC(=O)C23C(=O)C=CC(=O)C1O (centres undefined) | 8.3 µM (inactive) | 0.354 µM (active) | 14.1 µM (inactive) | 2.95 µM (inactive) | 3.72 µM (inactive) | 11.1 µM (inactive) | 3.57 µM (inactive) | 4.67 µM (inactive) | 17.9 µM (inactive) | 2.01 µM (inactive) | 14.5 µM (inactive) | 24.3 µM (inactive) | 11.8 µM (inactive) | 11.9 µM (inactive) | 14.7 µM (inactive) | 10.7 µM (inactive) | 11 µM (inactive) | 15.2 µM (inactive) | 1.96 µM (inactive) |
| O=C1c2cccc3cccc(c23)C(=O)N1CCCNCCCCNCCCN1C(=O)c2cccc3cccc(c23)C1=O | 0.0495 µM (active) | 0.192 µM (active) | 0.0887 µM (active) | 0.0738 µM (active) | 0.0401 µM (active) | 0.0697 µM (active) | 0.604 µM (active) | 0.137 µM (active) | 0.159 µM (active) | < 0.01 µM (active) | 0.0944 µM (active) | 14.5 µM (inactive) | 0.2 µM (active) | 0.658 µM (active) | 0.238 µM (active) | 0.644 µM (active) | 0.124 µM (active) | 0.337 µM (active) | 2.26 µM (inactive) |
| CSC1=N/C(=C\c2ccccc2)C(=O)N1CN1CCOCC1 | > 100 µM (inactive) | 54.5 µM (inactive) | 96.2 µM (inactive) | 39.4 µM (inactive) | 47.5 µM (inactive) | 52.7 µM (inactive) | 91.8 µM (inactive) | > 100 µM (inactive) | 93.8 µM (inactive) | 64.6 µM (inactive) | > 100 µM (inactive) | 17.1 µM (inactive) | 28.2 µM (inactive) | > 100 µM (inactive) | > 100 µM (inactive) | 50.5 µM (inactive) | 52.5 µM (inactive) | 34 µM (inactive) | 38.3 µM (inactive) |
